How the values were obtained:
[1] = Clearance in rat hepatocytes assessed per 10^6 cells; type: ADME, cell-based, Hepatocyte; details: read-out: CLH
[2] = Clearance in human hepatocytes assessed per 10^6 cells; type: ADME, cell-based, Hepatocyte; details: read-out: CLH

SMILES | hepatocyte CLint [1] | hepatocyte CLint [2]
O=C(c1ccc(O)cc1OC[C@@H](O)CN1CCC2(CC1)Cc1cc(Cl)ccc1O2)N1CC[C@H](O)C1 | 6.7 µL/min/1e6 cells | < 3 µL/min/1e6 cells
COc1ccc(C(=O)NC2CC2)c(OC[C@@H](O)CN2CCC3(CC2)Cc2cc(Cl)ccc2O3)c1 |  | 15 µL/min/1e6 cells
Cc1ccc(C(=O)N2CC[C@H](O)C2)c(OC[C@@H](O)CN2CCC3(CC2)Cc2cc(F)ccc2O3)c1 |  | 10 µL/min/1e6 cells
O=C(NC1CC1)c1ccc(O)cc1OC[C@@H](O)CN1CCC2(CC1)Cc1cc(Cl)ccc1O2 | 28 µL/min/1e6 cells | 10.6 µL/min/1e6 cells
Cc1ccc(C(=O)N2CC[C@H](O)C2)c(OC[C@@H](O)CN2CCC3(CC2)Cc2cc(Cl)ccc2O3)c1 |  | 11 µL/min/1e6 cells
O=C(c1cc(Cl)c(O)cc1OC[C@@H](O)CN1CCC2(CC1)Cc1cc(Cl)ccc1O2)N1CC[C@H](O)C1 | 8.1 µL/min/1e6 cells | < 3 µL/min/1e6 cells
O=C(NC1CC1)c1ccccc1OC[C@@H](O)CN1CCC2(CC1)Cc1cc(Cl)ccc1O2 | 45 µL/min/1e6 cells | 5.2 µL/min/1e6 cells
O=C(c1ccc(O)cc1OC[C@@H](O)CN1CCC2(CC1)Cc1cc(Cl)ccc1O2)N1CCCC1 | 23 µL/min/1e6 cells | 9.6 µL/min/1e6 cells
O=C(c1ccc(O)cc1OC[C@@H](O)CN1CCC2(CC1)Cc1cc(Cl)ccc1O2)N1CCCCC1 |  | 14 µL/min/1e6 cells
O=C(c1ccc(F)cc1OC[C@@H](O)CN1CCC2(CC1)Cc1cc(Cl)ccc1O2)N1CC[C@H](O)C1 | < 4 µL/min/1e6 cells | 6.8 µL/min/1e6 cells
O=C(NC1CC1)c1ccc(F)cc1OC[C@@H](O)CN1CCC2(CC1)Cc1cc(Cl)ccc1O2 | 20 µL/min/1e6 cells | 4.6 µL/min/1e6 cells
CNC(=O)c1ccc(O)cc1OC[C@@H](O)CN1CCC2(CC1)Cc1cc(F)ccc1O2 | 22 µL/min/1e6 cells | 26 µL/min/1e6 cells
CNC(=O)c1ccc(O)cc1OC[C@@H](O)CN1CCC2(CC1)Cc1cc(Cl)ccc1O2 | 33 µL/min/1e6 cells | < 4.6 µL/min/1e6 cells
